Results as given in PMC12471299, “Secondary Metabolites of the Marine Sponge-Derived Fungus Aspergillus subramanianii 1901NT-1.40.2 and Their Antimicrobial and Anticancer Activities” (Marine Drugs, 2025).
Converted amounts (≈) assume the structure as drawn.

Assays:
Type in all cases: cell-based
[1] = system: Escherichia coli VKPM (B-7935); experiment: Biofilm formation assay (MTT); settings: E. coli, 18 h
Experimental: (§1) The Gram-positive bacterial Staphylococcus aureus ATCC 21027, Gram-negative bacterial Escherichia coli VKPM (B-7935), and yeast-like fungal Candida albicans KMM 455 strains were fermented on solid medium Mueller Hinton broth with agar (16.0 g/L) in a Petri dish at 37 °C for 24 h. The antimicrobial activity of the compound was tested at concentrations ranging from 100 µM and lower. The effect of the compound on bacterial growth was estimated as described by. Gentamicin and amphotericin B were used as positive controls against S. aureus, E. coli, and C. albicans, and a 1% dimethyl sulfoxide (DMSO) solution in PBS was used as a negative control. The optical density of the bacterial suspension after 18 h was measured at λ = 620 nm. The effect of the compound on biofilm formation for 18 h was tested using MTT reagent (Sigma-Aldrich, St. Louis, MO, USA) in accordance with. The optical density of the obtained solution was measured at λ = 570 nm. A Multiskan FS spectrophotometer (Thermo Scientific Inc., Beverly, MA, USA) was used for both assays. The results were calculated as percentages of the control data and presented as minimal concentrations reduced by 50% of growth or biofilm formation (MIC50).

[2] = system: Staphylococcus aureus ATCC 21027; experiment: Biofilm formation assay (MTT); settings: S. aureus, 18 h
Experimental: as §1

[3] = system: Escherichia coli VKPM (B-7935); experiment: Antimicrobial assay, growth inhibition (optical density); settings: Escherichia coli, 18 h, E. coli
Experimental: as §1

[4] = system: Staphylococcus aureus ATCC 21027; experiment: as above; settings: Staphylococcus aureus, ATCC21027, 18 h, S. aureus, 18 h
Experimental: as §1

Candida albicans KMM 455 [5] = experiment: Biofilm formation assay (MTT); settings: C. albicans, 18 h
Experimental: as §1

Candida albicans KMM 455 [6] = experiment: Antimicrobial assay, growth inhibition (optical density); settings: Candida albicans, KMM455, 18 h, C. albicans, 18 h
Experimental: as §1

Row | SMILES | Biofilm formation, MIC50 [1] | Biofilm formation, MIC50 [2] | MIC50 [3] | MIC50 [4] | Biofilm formation, MIC50 (Candida albicans KMM 455 [5]) | MIC50 (Candida albicans KMM 455 [6])
1 | CNC(C)C1CCC(N)C(OC2C(N)CC(N)C(OC3OCC(C)(O)C(NC)C3O)C2O)O1 (stereo not drawn) [Gentamycin, reference compound] | 5.34 ± 0.50 µM | 4.34 ± 0.32 µM | 5.03 ± 0.77 µM (≈ 2.4 µg/mL) | 4.52 ± 0.98 µM (≈ 2.16 µg/mL) |  | 
2 | C[C@@H]1[C@H](O)[C@@H](C)/C=C/C=C/C=C/C=C/C=C/C=C/C=C/[C@H](O[C@@H]2O[C@H](C)[C@@H](O)[C@H](N)[C@@H]2O)C[C@@H]2O[C@](O)(C[C@@H](O)C[C@@H](O)[C@H](O)CC[C@@H](O)C[C@@H](O)CC(=O)O[C@H]1C)C[C@H](O)[C@H]2C(=O)O [Amphotericin B, reference compound] |  |  |  |  | 1.38 ± 0.14 µM | 1.18 ± 0.15 µM (≈ 1.09 µg/mL)
